Data as given in ChEMBL document CHEMBL5029195, “Substituted Imidazole Carboxamides as Novel Antibacterial Agents” (2022).

How the values were obtained:
Acinetobacter baumannii [1] = test: Antibacterial activity against Acinetobacter baumannii ATCC 17978 assessed as inhibition of bacterial growth after 16 hrs by two fold dilution method; assay type: functional
Acinetobacter baumannii [2] = test: Antibacterial activity against Acinetobacter baumannii ATCC 17961 assessed as inhibition of bacterial growth after 16 hrs by two fold dilution method; assay type: functional

SMILES	IC90 (Acinetobacter baumannii [1])	IC90 (Acinetobacter baumannii [2])
Cn1c(-c2ccc(OCC#N)c(F)c2F)cnc1C(=O)Nc1ccc(C(=O)N2CCC(C(=O)N3CCSCC3)CC2)c(Cl)c1	0.21 µM	
CCc1cc(NC(=O)c2ncc(-c3ccc(OC)c(F)c3F)n2C)ccc1C(=O)N1CCN(CCCN(C)C)CC1		0.26 µM
COc1ccc(-c2cnc(C(=O)Nc3ccc(C(=O)N4CCC(OCCN)CC4)c(Cl)c3)n2C)c(F)c1F		0.04 µM
COc1ccc(-c2cnc(C(=O)Nc3ccc(C(=O)N4CCC(C(=O)[C@H]5CCNC[C@H]5O)CC4)c(Cl)c3)n2C)c(F)c1F		0.09 µM
COc1ccc(-c2cnc(C(=O)Nc3ccc(C(=O)N4CCC(C(=O)NCCC(=O)O)CC4)c(Cl)c3)n2C)c(F)c1F		3.3 µM
CN(C)CCCN1CCN(C(=O)c2ccc(NC(=O)c3ncc(-c4ccc(OCC#N)c(F)c4F)n3C)cc2Cl)CC1	0.07 µM	
Cn1c(-c2ccc(OC(F)F)c(F)c2F)cnc1C(=O)Nc1ccc(C(=O)N2CCC(C(=O)N3CCC(C(N)=O)C3)CC2)c(Cl)c1 (centres undefined)		0.15 µM
Cn1c(-c2ccc(OC(F)F)c(F)c2F)cnc1C(=O)Nc1ccc(C(=O)N2CCC(C(=O)NC[C@H]3CCNC3)CC2)c(Cl)c1		0.04 µM
CNCCN1CCN(C(=O)c2ccc(NC(=O)c3ncc(-c4ccc(OC)c(F)c4F)n3C)cc2Cl)CC1	0.08 µM	
COc1ccc(-c2cnc(C(=O)Nc3ccc(C(=O)N4CCC(C(=O)[C@@H]5CCNC[C@H]5O)CC4)c(Cl)c3)n2C)c(F)c1F		0.1 µM
COc1ccc(-c2cnc(C(=O)Nc3ccc(C(=O)N4CCC(CN)CC4)c(Cl)c3)n2C)c(F)c1F	0.3 µM	
COc1ccc(-c2cnc(C(=O)Nc3ccc(C(=O)N4CCN(C(=O)[C@@H]5C[C@@H](O)CN5)CC4)c(Cl)c3)n2C)c(F)c1F	0.1 µM	
CCc1cc(NC(=O)c2ncc(-c3ccc(OC)cc3Cl)n2C)ccc1C(=O)N1CCN(CCNC)CC1	2.3 µM	
COc1ccc(-c2cnc(C(=O)Nc3ccc(C(=O)N4CCC(CCN)CC4)c(Cl)c3)n2C)c(F)c1F		0.03 µM
